Experimental data reported in patent US20240285512A1, “ORAL CARE COMPOSITIONS” (Firmenich SA, priority 2021, published 2024).
Like-named read-outs stand apart in the source and are kept apart here.

How the values were obtained:
Format in all cases: cell-based
[1] = tested on: mature biofilm of defined inocula (12 bacterial strains of Table 1); experiment: Biofilm disruption assay, defined inocula (7-day mature biofilm, SYTO 9 fluorescence); details: for inhibition at 0.01 % / inhibition at 10000 µM / inhibition at 0.1 %: read-out: Disruption Δ (difference in relative biofilm abundance between control base and treatment); for inhibition at 0.1 %: dosage 0.1%
Protocol: (§1) A total of 12 bacterial strains were selected based on scientific literature. The strains were grown in media recommended by strain suppliers. Broth cultures were adjusted to log 7 CFU/mL with growth media containing 20% of glycerol. For C. matruchotii growth medium with glycerol was used to wash off the colonies culture plates, the cell suspension was then homogenized by vortexing with glass beads. The aerobic and anaerobic strains were mixed and aliquoted separately. The inocula were stored at −80° C. until use.
(§2) Saliva and oral inocula preparation. Saliva and oral microflora samples were collected from healthy volunteers by passive drooling using a method described previously. • (a) Bacteria Adhesion assay. Pegs of 96-well MBEC plate (Innovotech, Canada) were submerged in saliva for pellicle formation. Overnight culture of A. oris, A. naeslundii, S. mitis and S. oralis were normalized to OD=0.1 using 0.85% NaCl and mixed in equal proportions. The plates were treated with samples for 2 min and incubated with the culture mixture for 30 min at 37° C. and 5% CO2. The pegs on 96-well plates were then washed 3 times before harvest. • (b) Biofilm formation assay. Saliva-coated 96-well MBEC plates were incubated with inocula anaerobically overnight. The next day, the inoculum was replaced with modified BHI broth (BHI supplemented with 1 g/L mucin, 0.5 mg/L Vitamin K and 10 mg/L hemin). The devices were treated for 2 min twice to mimic the application of dental care products, after which the treatment solution was replaced with fresh modified BHI broth and incubation of the devices was continued. The biofilms were harvested after two days. • (c) Biofilm disruption assay. The inoculation and incubation was done in the same manner as described in the formation assay except that the incubation time was extended to 7 days, after which the mature biofilm was subjected to treatment twice a day as in the formation assay for 3 days before harvest.
(§3) Biofilm harvest. To harvest the attached cells, the peg of the MBEC device was immersed in 200 μL of saline solution per well. The plates were sonicated in an ultrasonic bath to obtain cell suspension. For the adhesion assay, the suspension was serially diluted and plated on Tryptic Soy Agar using Microlab STAR (Hamilton). For the formation and disruption assays, the suspension was used for SYTO 9 staining using LIVE/DEAD® BacLight Bacterial Viability Kits L7012 (Thermo Fisher Scientific) following manufacturer instructions.
(§4) The inventors used the assays described above to screen more ingredients for activity in a model mouth wash (Table 5).
(§5) The compounds and compositions for testing activities in Table 6 were dissolved in DMSO. The rest of the ingredients of mouth rinse in Table 5 were mixed to make a master mix in water and then aliquoted. The DMSO solution was then added to the master mix and homogenized.

[2] = tested on: A. oris, A. naeslundii, S. mitis and S. oralis; experiment: Bacteria adhesion assay, defined inocula (MBEC pegs, saliva pellicle, CFU plating); details: for inhibition at 0.01 % / inhibition at 10000 µM / inhibition at 0.1 %: relative CFU with base designated as 100, read-out: Adhesion Δ (difference in relative biofilm abundance between control base and treatment); for Adhesion Δ (difference in relative biofilm abundance between control base and treatment): relative CFU with base designated as 100
Protocol: as §1, §2, §3, §4, §5

[3] = tested on: biofilm of defined inocula (12 bacterial strains of Table 1); experiment: Biofilm formation assay, defined inocula (MBEC plates, SYTO 9 fluorescence); details: for inhibition at 0.01 % / inhibition at 10000 µM / inhibition at 0.1 %: read-out: Formation Δ (difference in relative biofilm abundance between control base and treatment); for inhibition at 0.1 %: dosage 0.1%
Protocol: as §1, §2, §3, §4, §5

[4] = dosage 0.01%, defined inocula, relative fluorescence intensity with base designated as 100
[5] = dosage 10 mM in model mouth rinse with DMSO, defined inocula, relative fluorescence intensity with base designated as 100
[6] = dosage 10 mM in model mouth rinse with DMSO
[7] = defined inocula, relative fluorescence intensity with base designated as 100

Compound: CCC=CCCOC(C)=O [3-HEXENYL ACETATE, 3-hexenyl acetate]
- inhibition at 0.01 % [1, 4]: 64.7%
- inhibition at 0.01 % ([2]; dosage 0.01%): 32.7%
- inhibition at 0.01 % [3, 4]: 78.1%

Compound: CC=Cc1ccc(OC)cc1 [Anethole]
- inhibition at 10000 µM [1, 5]: 77.4%
- inhibition at 10000 µM [2, 6]: 17.4%
- inhibition at 10000 µM [3, 5]: 53.4%

Compound: CC(=O)/C=C/C1=C(C)CCCC1(C)C [BETA IONONE, (3E)-4-(2,6,6-Trimethylcyclohex-1-en-1-yl)but-3-en-2-one]
- inhibition at 0.01 % [1, 4]: 61.8%
- inhibition at 0.01 % ([2]; dosage 0.01%): 19.4%
- inhibition at 0.01 % [3, 4]: 80.8%

Compound: O=CC=Cc1ccccc1 [Cinnamaldehyde]
- inhibition at 0.1 % [1, 7]: 48.2%
- inhibition at 0.1 % ([2]; dosage 0.1%): -9.1%
- inhibition at 0.1 % [3, 7]: 83.3%

Compound: CC(C)=CCCC(C)CCO (centres unmarked) [Citronellol]
- inhibition at 10000 µM [1, 5]: 67%
- inhibition at 10000 µM [2, 6]: 91.7%
- inhibition at 10000 µM [3, 5]: 58.1%

Compound: CCCCCCCCCC(=O)O [Decanoic acid]
- inhibition at 10000 µM [1, 5]: 89.8%
- inhibition at 10000 µM [3, 5]: 93.3%

Compound: CC(C)=CCC/C(C)=C/CO [GERANIOL, Geraniol]
- inhibition at 0.01 % [1, 4]: 61.7%
- inhibition at 0.01 % ([2]; dosage 0.01%): 32.1%
- inhibition at 0.01 % [3, 4]: 84.7%

Compound: CC(C)CCO [ISOAMYL ALCOHOL, Isoamyl alcohol]
- inhibition at 0.1 % [1, 7]: 57.4%
- inhibition at 0.1 % ([2]; dosage 0.1%): 63.7%
- inhibition at 0.1 % [3, 7]: 82.3%

Compound: CCCCCC1C(=O)CCC1CC(=O)OC (centres unmarked) [Methyl (2-pentyl-3-oxocyclopentyl) acetate]
- Disruption Δ (difference in relative biofilm abundance between control base and treatment) [1, 4]: 63.2
- Adhesion Δ (difference in relative biofilm abundance between control base and treatment) ([2]; dosage 0.01%): 37.1
- Formation Δ (difference in relative biofilm abundance between control base and treatment) [3, 4]: 86.3

Compound: CCCCCCCCCCCCCC(=O)O [Myristic Acid, Myristic acid]
- inhibition at 10000 µM [1, 5]: 87.9%
- inhibition at 10000 µM [2, 6]: 33.3%
- inhibition at 10000 µM [3, 5]: 64.9%

Compound: C=C(C)[C@@H]1CCC2=CC(=O)C[C@@H](C)[C@]2(C)C1 [Nootkatone]
- inhibition at 10000 µM [1, 5]: 63.1%
- inhibition at 10000 µM [2, 6]: 86.4%
- inhibition at 10000 µM [3, 5]: 20.3%

Compound: CCCCC1CCC(=O)O1 (centres unmarked) [OCTALACTONE, Gamma octalactone]
- Disruption Δ (difference in relative biofilm abundance between control base and treatment) [1, 4]: 74.1
- Adhesion Δ (difference in relative biofilm abundance between control base and treatment) ([2]; dosage 0.01%): 63.5
- Formation Δ (difference in relative biofilm abundance between control base and treatment) [3, 4]: 89.1

Compound: Cc1ccc(C(C)C)c(O)c1 [THYMOL, Thymol]
- inhibition at 0.1 % [1, 7]: 72%
- inhibition at 0.1 % ([2]; dosage 0.1%): 5.7%
- inhibition at 0.1 % [3, 7]: 86.7%

Compound: CC/C=C\CCOC(=O)CCCCC [cis-3-hexenylhexanoate]
- Disruption Δ (difference in relative biofilm abundance between control base and treatment) [1, 5]: 75.3
- Adhesion Δ (difference in relative biofilm abundance between control base and treatment) [2, 6]: 9.1
- Formation Δ (difference in relative biofilm abundance between control base and treatment) [3, 5]: 58.1

Compound: CCCCCCCCCCC(=O)O [undecanoic acid, Undecanoic acid]
- inhibition at 10000 µM [1, 5]: 89.1%
- inhibition at 10000 µM [2, 6]: 98.8%
- inhibition at 10000 µM [3, 5]: 87.5%

Compound: Butanol
- Disruption Δ (difference in relative biofilm abundance between control base and treatment) [1]: 59.5
- Adhesion Δ (difference in relative biofilm abundance between control base and treatment) ([2]; dosage 0.1%): 56.8
- Formation Δ (difference in relative biofilm abundance between control base and treatment) [3]: 83.5
